In ChEMBL document CHEMBL5370665, “Insight from Linker Investigations: Discovery of a Novel Phenylbenzothiazole Necroptosis Inhibitor Targeting Receptor-Interacting Protein Kinase 1 (RIPK1) from a Phenoxybenzothiazole Compound with Dual RIPK1/3 Targeting Activity” (J Med Chem, 2023):
Activity calls are given as the source filed them. The calls are words filed in the database; no cut-off is given here.

Tests used:
HT-29 [1] = assay: Anti-necroptic activity against human HT-29 cells assessed as inhibition of TSZ (TNFalpha, Smac mimetic and z-VAD-FMK) induced necroptosis pretreated with compound followed by TSZ stimulation for 16 to 18 hrs by CellTiter-Glo Luminescent cell viability assay; assay type: functional, cell-based
[2] = Cytotoxicity against human HT-29 cells assessed as reduction in cell viability incubated for 16 to 24 hrs by CellTiter-Glo Luminescent cell viability assay; assay type: toxicity, cell-based; conditions: time 16-24 hrs
Mus musculus [3] = assay: Anti-inflammatory activity against C57BL/6J mouse model of TNFalpha-induced systemic inflammatory response syndrome (SIRS) assessed as decrease in IL-6 level in intestine at 5 mg/kg,po 2 hrs prior to mTNFalpha and z-VAD-FMK stimulation for 8 hrs by ELISA; assay type: functional, organism-based; conditions: time 10.0 hrs
Mus musculus [4] = assay: Anti-inflammatory activity against C57BL/6J mouse model of TNFalpha-induced systemic inflammatory response syndrome (SIRS) assessed as increase in body temperature at 5 mg/kg,po 2 hrs prior to mTNFalpha and z-VAD-FMK stimulation and measured upto 18 hrs by electric thermometer analysis; assay type: functional, organism-based; conditions: time 20.0 hrs
Mus musculus [5] = assay: Anti-inflammatory activity against C57BL/6J mouse model of TNFalpha-induced systemic inflammatory response syndrome (SIRS) assessed as decrease in IL-6 level in lung at 5 mg/kg,po 2 hrs prior to mTNFalpha and z-VAD-FMK stimulation for 8 hrs by ELISA; assay type: functional, organism-based; conditions: time 10.0 hrs
Mus musculus [6] = assay: Anti-inflammatory activity against C57BL/6J mouse model of TNFalpha-induced systemic inflammatory response syndrome (SIRS) assessed as decrease in IL-1beta level in spleen at 5 mg/kg,po 2 hrs prior to mTNFalpha and z-VAD-FMK stimulation for 8 hrs by ELISA; assay type: functional, organism-based; conditions: time 10.0 hrs
Mus musculus [7] = assay: Anti-inflammatory activity against C57BL/6J mouse model of TNFalpha-induced systemic inflammatory response syndrome (SIRS) assessed as decrease in IL-6 level in liver at 5 mg/kg,po 2 hrs prior to mTNFalpha and z-VAD-FMK stimulation for 8 hrs by ELISA; assay type: functional, organism-based; conditions: time 10.0 hrs
Mus musculus [8] = assay: Anti-inflammatory activity against C57BL/6J mouse model of TNFalpha-induced systemic inflammatory response syndrome (SIRS) assessed as decrease in IL-1beta level in intestine at 5 mg/kg,po 2 hrs prior to mTNFalpha and z-VAD-FMK stimulation for 8 hrs by ELISA; assay type: functional, organism-based; conditions: time 10.0 hrs
Mus musculus [9] = assay: Anti-inflammatory activity against C57BL/6J mouse model of TNFalpha-induced systemic inflammatory response syndrome (SIRS) assessed as increase in survival rate at 5 mg/kg,po 2 hrs prior to mTNFalpha and z-VAD-FMK stimulation and measured upto 24 hrs; assay type: functional; conditions: time 26 hrs
Mus musculus [10] = assay: Anti-inflammatory activity against C57BL/6J mouse model of TNFalpha-induced systemic inflammatory response syndrome (SIRS) assessed as decrease in IL-1beta level in lung at 5 mg/kg,po 2 hrs prior to mTNFalpha and z-VAD-FMK stimulation for 8 hrs by ELISA; assay type: functional, organism-based; conditions: time 10.0 hrs
Mus musculus [11] = assay: Anti-inflammatory activity against C57BL/6J mouse model of TNFalpha-induced systemic inflammatory response syndrome (SIRS) assessed as decrease in IL-6 level in kidney at 5 mg/kg,po 2 hrs prior to mTNFalpha and z-VAD-FMK stimulation for 8 hrs by ELISA; assay type: functional, organism-based; conditions: time 10.0 hrs
Mus musculus [12] = assay: Anti-inflammatory activity against C57BL/6J mouse model of TNFalpha-induced systemic inflammatory response syndrome (SIRS) assessed as decrease in IL-6 level in brain at 5 mg/kg,po 2 hrs prior to mTNFalpha and z-VAD-FMK stimulation for 8 hrs by ELISA; assay type: functional, organism-based; conditions: time 10.0 hrs
Mus musculus [13] = assay: Anti-inflammatory activity against C57BL/6J mouse model of TNFalpha-induced systemic inflammatory response syndrome (SIRS) assessed as decrease in IL-1beta level in liver at 5 mg/kg,po 2 hrs prior to mTNFalpha and z-VAD-FMK stimulation for 8 hrs by ELISA; assay type: functional, organism-based; conditions: time 10.0 hrs
Mus musculus [14] = assay: Anti-inflammatory activity against C57BL/6J mouse model of TNFalpha-induced systemic inflammatory response syndrome (SIRS) assessed as decrease in IL-1beta level in brain at 5 mg/kg,po 2 hrs prior to mTNFalpha and z-VAD-FMK stimulation for 8 hrs by ELISA; assay type: functional, organism-based; conditions: time 10.0 hrs
Mus musculus [15] = assay: Anti-inflammatory activity against C57BL/6J mouse model of TNFalpha-induced systemic inflammatory response syndrome (SIRS) assessed as decrease in IL-6 level in spleen at 5 mg/kg,po 2 hrs prior to mTNFalpha and z-VAD-FMK stimulation for 8 hrs by ELISA; assay type: functional, organism-based; conditions: time 10.0 hrs
Mus musculus [16] = assay: Anti-inflammatory activity against C57BL/6J mouse model of TNFalpha-induced systemic inflammatory response syndrome (SIRS) assessed as decrease in IL-6 level in heart at 5 mg/kg,po 2 hrs prior to mTNFalpha and z-VAD-FMK stimulation for 8 hrs by ELISA; assay type: functional, organism-based; conditions: time 10.0 hrs
Mus musculus [17] = assay: Anti-inflammatory activity against C57BL/6J mouse model of TNFalpha-induced systemic inflammatory response syndrome (SIRS) assessed as decrease in IL-1beta level in kidney at 5 mg/kg,po 2 hrs prior to mTNFalpha and z-VAD-FMK stimulation for 8 hrs by ELISA; assay type: functional, organism-based; conditions: time 10.0 hrs
HT-29 [18] = assay: Anti-apoptotic activity against human HT-29 cells assessed as inhibition of TC (human TNFalpha, cycloheximide) induced apoptosis upto 20 uM pretreated with compound followed by TC stimulation for 36 hrs by CellTiter-Glo Luminescent cell viability assay; assay type: functional, cell-based
Mus musculus [19] = assay: Anti-inflammatory activity against C57BL/6J mouse model of TNFalpha-induced systemic inflammatory response syndrome (SIRS) assessed as decrease in IL-1beta level in heart at 5 mg/kg,po 2 hrs prior to mTNFalpha and z-VAD-FMK stimulation for 8 hrs by ELISA; assay type: functional, organism-based; conditions: time 10.0 hrs
[20] = biological target: Receptor-interacting serine/threonine-protein kinase 3 (Homo sapiens, UniProt Q9Y572); assay: Binding affinity to recombinant RIPK3 (unknown origin) assessed as dissociation constant incubated for 1 hr by KINOMEscanTM assay
[21] = biological target: T1, Receptor-interacting serine/threonine-protein kinase 1 (Homo sapiens, UniProt Q13546); assay: Binding affinity to recombinant RIPK1 (unknown origin) assessed as dissociation constant incubated for 1 hr by KINOMEscanTM assay
T1 sequence (Q13546 whole entry): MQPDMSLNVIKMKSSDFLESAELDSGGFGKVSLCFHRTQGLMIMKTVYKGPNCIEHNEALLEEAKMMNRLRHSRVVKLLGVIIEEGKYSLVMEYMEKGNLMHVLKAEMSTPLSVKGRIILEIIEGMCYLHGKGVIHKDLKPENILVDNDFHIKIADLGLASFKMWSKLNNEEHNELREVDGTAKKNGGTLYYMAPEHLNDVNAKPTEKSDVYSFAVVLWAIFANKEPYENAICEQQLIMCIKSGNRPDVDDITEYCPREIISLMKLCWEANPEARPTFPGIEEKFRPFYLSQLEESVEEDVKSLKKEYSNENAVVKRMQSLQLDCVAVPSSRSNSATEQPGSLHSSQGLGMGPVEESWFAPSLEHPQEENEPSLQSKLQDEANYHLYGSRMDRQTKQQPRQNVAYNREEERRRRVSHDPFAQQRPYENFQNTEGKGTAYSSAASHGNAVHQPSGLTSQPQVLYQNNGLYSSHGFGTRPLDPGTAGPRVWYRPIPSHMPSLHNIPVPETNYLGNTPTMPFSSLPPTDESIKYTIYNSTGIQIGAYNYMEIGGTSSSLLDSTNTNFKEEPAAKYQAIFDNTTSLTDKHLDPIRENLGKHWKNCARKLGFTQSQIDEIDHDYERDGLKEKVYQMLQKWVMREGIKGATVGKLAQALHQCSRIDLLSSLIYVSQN

HT-29 [22] = assay: Anti-necroptic activity in TSZ (TNFalpha, Smac mimetic and z-VAD-FMK) induced necroptosis in human HT-29 cells assessed as increase in cell viability preincubated for 30 mins pretreated followed by TSZ stimulation and measured after 16 hrs by MTT assay; assay type: functional, cell-based

Receptor-interacting serine/threonine-protein kinase 3, sequence (Q9Y572 whole entry): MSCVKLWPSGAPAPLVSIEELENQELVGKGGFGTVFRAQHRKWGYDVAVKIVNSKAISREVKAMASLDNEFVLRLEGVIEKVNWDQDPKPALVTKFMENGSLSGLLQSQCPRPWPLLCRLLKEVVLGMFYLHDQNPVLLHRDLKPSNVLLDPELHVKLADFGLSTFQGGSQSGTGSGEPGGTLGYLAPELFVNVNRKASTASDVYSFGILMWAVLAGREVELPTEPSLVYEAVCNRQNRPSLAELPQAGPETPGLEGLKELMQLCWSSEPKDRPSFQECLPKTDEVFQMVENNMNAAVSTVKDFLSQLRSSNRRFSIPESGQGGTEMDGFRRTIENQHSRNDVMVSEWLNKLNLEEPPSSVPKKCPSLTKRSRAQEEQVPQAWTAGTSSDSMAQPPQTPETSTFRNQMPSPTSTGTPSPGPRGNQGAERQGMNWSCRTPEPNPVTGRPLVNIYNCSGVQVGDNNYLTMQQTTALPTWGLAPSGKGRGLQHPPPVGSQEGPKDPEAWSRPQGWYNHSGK

| SMILES | EC50 (HT-29 [1]) [µM] | CC50 [2] [µM] | other results |
| --- | --- | --- | --- |
| O=C(Cc1cccc(OC(F)(F)F)c1)Nc1cc(-c2ccc3sc(NC(=O)C4CC4)nc3c2)ccc1F | > 20 | > 10 |  |
| O=C(Cc1cccc(OC(F)(F)F)c1)Nc1cc(Sc2ccc3nc(NC(=O)C4CC4)sc3c2)ccc1F | 1.56 | > 10 |  |
| O=C(Cc1cccc(OC(F)(F)F)c1)Nc1cc(S(=O)(=O)c2ccc3nc(NC(=O)C4CC4)sc3c2)ccc1F | > 20 | > 10 |  |
| O=C(Cc1cccc(OC(F)(F)F)c1)Nc1cc(Nc2ccc3nc(NC(=O)C4CC4)sc3c2)ccc1F | 1.24 | > 10 |  |
| O=C(Cc1cccc(OC(F)(F)F)c1)Nc1cc(COc2ccc3nc(NC(=O)C4CC4)sc3c2)ccc1F | 0.9 | > 10 |  |
| O=C(Cc1cccc(OC(F)(F)F)c1)Nc1cc(C(=O)c2ccc3nc(NC(=O)C4CC4)sc3c2)ccc1F | 2.04 | > 10 |  |
| CN(c1ccc(F)c(NC(=O)Cc2cccc(OC(F)(F)F)c2)c1)c1ccc2nc(NC(=O)C3CC3)sc2c1 | 0.75 | > 10 |  |
| O=C(Cc1cccc(OC(F)(F)F)c1)Nc1cc(-c2cccc3nc(NC(=O)C4CC4)sc23)ccc1F | > 20 | > 10 |  |
| O=C(Cc1cccc(OC(F)(F)F)c1)Nc1cc(Oc2ccc3nc(NC(=O)C4CC4)sc3c2)ccc1F |  |  | Activity (Mus musculus [3]): inactive; Activity (Mus musculus [4]): inactive; Activity (Mus musculus [5]): inactive; Activity (Mus musculus [6]): inactive; Activity (Mus musculus [7]): inactive; Activity (Mus musculus [8]): inactive; survival at 5 mg/kg (Mus musculus [9]): 40%; Activity (Mus musculus [10]): inactive; Activity (Mus musculus [11]): inactive; Activity (Mus musculus [12]): inactive; Activity (Mus musculus [13]): inactive; Activity (Mus musculus [14]): inactive; Activity (Mus musculus [15]): inactive; Activity (Mus musculus [16]): inactive; Activity (Mus musculus [17]): inactive; Activity (HT-29 [18]): Active; Activity (Mus musculus [19]): inactive |
| O=C(Cc1cccc(OC(F)(F)F)c1)Nc1cc(C(O)c2ccc3nc(NC(=O)C4CC4)sc3c2)ccc1F (stereo not given) | 0.71 | > 10 |  |
| O=C(Nc1cccc(C(F)(F)F)c1)Nc1cc(Oc2ccc3nc(NC(=O)C4CC4)sc3c2)ccc1F |  |  | Activity (HT-29 [18]): Active |
| O=C(Cc1cccc(OC(F)(F)F)c1)Nc1cc(NC(=O)c2ccc3nc(NC(=O)C4CC4)sc3c2)ccc1F | 3.13 | > 10 |  |
| O=C(Cc1cccc(OC(F)(F)F)c1)Nc1ccc(-c2ccc3nc(NC(=O)C4CC4)sc3c2)cc1F | > 20 | > 10 |  |
| O=C(Cc1cccc(OC(F)(F)F)c1)Nc1cc(C#Cc2ccc3nc(NC(=O)C4CC4)sc3c2)ccc1F | 0.2 | > 10 |  |
| O=C(Cc1cccc(OC(F)(F)F)c1)Nc1cc(-c2cccc3sc(NC(=O)C4CC4)nc23)ccc1F | > 20 | > 10 |  |
| O=C(Cc1cccc(OC(F)(F)F)c1)Nc1cccc(-c2ccc3nc(NC(=O)C4CC4)sc3c2)c1F | 0.34 | > 10 | Kd [20]: > 5 µM; Kd [21]: 0.14 µM |
| O=C(Cc1cccc(OC(F)(F)F)c1)Nc1cc(C(=O)Nc2ccc3nc(NC(=O)C4CC4)sc3c2)ccc1F | 1.26 | > 10 |  |
| O=C(Cc1cccc(C(F)(F)F)c1)Nc1cc(Oc2cc3sc(NC(=O)C4CC4)nc3cc2F)ccc1F |  |  | EC50 (HT-29 [22]): 0.008 µM |
| O=C(Cc1cccc(OC(F)(F)F)c1)Nc1c(F)cccc1-c1ccc2nc(NC(=O)C3CC3)sc2c1 | > 20 | > 10 |  |
| O=C(Cc1cccc(OC(F)(F)F)c1)Nc1cc(Cc2ccc3nc(NC(=O)C4CC4)sc3c2)ccc1F | 0.31 | > 10 |  |
